The record followed here is patent US20240075009A1, “TREATMENT OF S[…] PSILOCIN OR PSILOCYBIN” (NEW YORK UNIVERSITY, priority 2021, published 2024).

Common to all, as to type: in vivo, human
The subject of test [1] is cancer patients. In words: Composite desire for hastened death (DHD) score (5 loss-of-meaning items of the Demoralization Scale), crossover trial with psychotherapy. Conditions: for DHD within-subjects reduction relative to baseline: combined groups. As for the experimental part:
(§1) 29 participants were randomly assigned to one of two groups: psilocybin (0.3 mg/kg) on the first medication session followed by niacin (250 mg) on the second session (i.e. psilocybin-first group), or niacin (250 mg) on the first medication session followed by psilocybin (0.3 mg/kg) on the second session (i.e. niacin-first group). Psilocybin and niacin were administered in identically appearing gelatin capsules.
(§2) Participants received three 2-hour preparatory psychotherapy sessions in order to review the purpose and intention of participation in the study, treatment goals, and structure of the treatment sessions. Medications were administered in 8-hour treatment sessions which included a discussion of the participant's subjective experience with the treatment team to consolidate the memory of the experience and to begin the process of post-integrative psychotherapy. Participants also received three 2-hour post-medication integration sessions (repeated after the second dosing session) to further consolidate the memory of the experience and to continue the process of psychological integration. All psychotherapy treatment sessions were delivered by a dyadic therapy team trained in a blend of psychotherapies with an evidence base to support their use in cancer patients (drawing upon principles of palliative care therapy, existential psychotherapy, cognitive-behavioural therapy, psychoanalysis therapy, and transpersonal psychology) and were taught about the safety and clinical pharmacology of psilocybin. Each therapy dyad underwent six confidential one-to-one sessions to build their alliance and exchange ideas about psychedelic therapy. The trial employed a crossover design at seven weeks following the first drug administration, with an outcome assessment at 6.5 months (26 weeks) following the second drug administration (i.e. after the crossover).
(§3) Two long-term follow ups (LTFUs) were carried out to assess the continued effect of psilocybin.
(§4) Primary outcomes (suicidal ideation and desire for hastened death) were measured according to the following methods: • Beck Depression Inventory-II (BDI-II) (Beck et al., 1988)— this is a widely used self-report measure to assess depression. The BDI-II comprises 21 questions related to depressive symptoms experienced over the previous two weeks, and is rated on a […] (total score ranges from 0-63). Scores greater than 12 correlate with clinical depression. […] Item #9 on the BDI queries suicidal ideation with the following options: 0=I don't have any thoughts of killing myself; 1=I have thoughts of killing myself, but I would not carry them out; 2=I would like to kill myself; 3=I would kill myself if I had the chance. The BDI-II was assessed at baseline, 1-day prior to dose-1, 8-hours after dose-1, 1-day after dose-1, 2-weeks after dose-1, 6-weeks after dose-1, 7-weeks after dose-1 (corresponding to 1-day prior to dose-2), 1-day after dose-2, 6-weeks after dose-2, 26-weeks after dose-2, and at the 3.2 year and 4.5 year LTFU assessments. • The Brief Symptom Inventory (BSI) (Derogatis 1993) is a 53-item self-report questionnaire that assesses a range of psychiatric symptoms, generating 9 domains (depression, anxiety, phobic anxiety, somatization, obsession-compulsion, interpersonal sensitivity, hostility, paranoid ideation, psychoticism) and a global severity index.

Test [2] concerns cancer patients. Briefly: Composite suicidal ideation (SI) score (BDI-II item #9 + BSI item #9, T-scores), crossover trial with psychotherapy. Particulars: for Composite SI within-subject effect size relative to baseline, Cohen's d: psilocybin-1st group. As for the experimental part: as §1, §2, §3, §4
The subject of test [3] is cancer patients. In words: Primary outcomes DHD and SI taken together: within-subject effect sizes across measures and time points. As for the experimental part: as §1
Participants received three 2-hour preparatory psychotherapy sessions in order to review the purpose and intention of participation in the study, treatment goals, and structure of the treatment sessions. Medications were administered in 8-hour treatment sessions which included a discussion of the participant's subjective experience with the treatment team to consolidate the memory of the experience and to begin the process of post-integrative psychotherapy. […]
Primary outcomes (suicidal ideation and desire for hastened death) were measured according to the following methods: • Beck Depression Inventory-II (BDI-II) (Beck et al., 1988)— this is a widely used self-report measure to assess depression. […] It is measured on a Likert scale: 0=Not at all; 1=Little, 2=Moderately; 3=Quite a bit; 4=Extremely. […]

[4] abbreviates: after crossover, both dose-sequence groups combined, 6.5-month follow-up, p<0.001.

Regarding `O=C(O)c1cccnc1` [niacin], the “Composite DHD score, main effect of time within group” value with cancer patients [1] (niacin-1st group (250 mg), prior to the crossover, p=0.079, n=5) is recorded as “no significant main effect of time”. Moreover, in the test on cancer patients [2] (niacin-1st group (250 mg), prior to the crossover, p=0.065, n=5), the “Composite suicidality/SI score, main effect of time within group” value is recorded as “no significant main effect of time”.
Regarding `CN(C)CCc1c[nH]c2cccc(OP(=O)(O)O)c12` [psilocybin, [3-(2-dimethylaminoethyl)-1H-indol-4-yl] dihydrogen phosphate], in the test on cancer patients [1] (2-weeks post dose-1, pre-crossover, p=0.005, n=6), the “DHD mean score relative to baseline, within psilocybin-1st group” value is reported as “differed significantly”. Moreover, the “DHD between-group difference, psilocybin-1st vs niacin-1st, Cohen's d” value in the test with cancer patients [1] (2-weeks post dose-1, pre-crossover, psilocybin 0.3 mg/kg single dose, n=6 vs n=5) was 1.32. For the same compound, the “DHD within-subjects change relative to baseline” value with cancer patients [1] (setting [4]) is reported as “statistically significant within-subjects reductions”. Further, the “DHD within-subjects reduction relative to baseline” value in the test on cancer patients [1] (after crossover, 3.2-year follow-up, p<0.001) was “remained significant”; with cancer patients [1] (after crossover, 4.5-year follow-up, p<0.001), “remained significant”. Also, in the test on cancer patients [2] (setting [4]), the “Composite SI within-subjects change relative to baseline” value is on record as “statistically significant within-subjects reductions”. For the same compound, in the test on cancer patients [2] (prior to the crossover, psilocybin 0.3 mg/kg, interaction p=0.065, group p=0.614), the “Composite SI, between-group comparison psilocybin-1st vs niacin-1st” value is “no significant differences between the two groups”. In addition, the “Composite SI within-subject effect size relative to baseline, Cohen's d” value in the test on cancer patients [2] (2-weeks post-dose 1, p<0.001) is given as 2.40; in the test with cancer patients [2] (7-weeks post-dose 1, p<0.001), 3.50; with cancer patients [2] (8-hours post-dose 1, p<0.001), 2.40. Further, in the test with cancer patients [3] (after crossover, combined groups, 6.5 months to 4.5 years), the “Within-subjects effect sizes across DHD and SI and time points, Cohen's d range” value was 1.51-2.56. For the same compound, the “Within-subject effect sizes across DHD and SI and time points, Cohen's d range” value in the test on cancer patients [3] (psilocybin-1st group, pre-crossover, statistically significant reductions) was 1.20-3.50.
